As usually defined, the pEC50 is the negative decadic logarithm of the EC50, by convention in mol/L. Usually Kp stands for the ratio of the level in a tissue or fluid to that in plasma or blood.

Each structure is given as a SMILES string. pEC50: −log10 of the molar value. Like-named read-outs stand apart in the source and are kept apart here.

One data set concerns the target T1, human mGlu4 (Homo sapiens, UniProt Q14833).
T1 construct: expressed in transfected cells; host or cells: CHO (Chinese Hamster Ovary) cells
Description: mGlu4 PAM potentiation in human mGlu4/Gqi5 cells with ~EC20 glutamate (Hamamatsu FDSS). Particulars: ~EC20 concentration of glutamate. In kind it is cell-based. Here is the method: The disclosed compounds and compositions can be evaluated for their ability to act as a potentiatior of metabotropic glutamate receptor activity, in particular mGluR4 activity, by any suitable known methodology known in the art. For example, Chinese Hamster Ovary (CHO) cells transfected with human mGluR4 or HEK cells co-transfected with rat mGluR4 and the G-protein regulated Inwardly Rectifying Potassium channel (GIRK) were plated in clear bottom assay plates for assay in a Hamamatsu FDSS Fluorometric Plate Reader. The cells were loaded with either a Ca2+-sensitive fluorescent dye or the thallium responsive dye and the plates were washed and placed into a suitable kinetic plate reader. For human mGluR4 assays, a fluorescence baseline was established for 3-5 seconds, the disclosed compounds were then added to the cells, and the response in cells was measured. Approximately two and a half minutes later, a concentration of mGluR4 orthosteric agonist (e.g. glutamate, L-AP4, or L-SOP) eliciting approximately 20% (EC20) of the maximal agonist response was added to the cells, and the response was measured. Two minutes later, a concentration of mGluR4 agonist (e.g. glutamate, L-AP4, or L-SOP) eliciting 80% (EC80) of the maximal agonist response was added to the cells, and the response was measured. For rat mGluR4/GIRK experiments, a baseline was established for approximately five seconds, disclosed compounds were added, and either an EC20 or EC80 concentration of agonist was added approximately two and one half minutes later.
The above described assay operated in two modes. In the first mode, a range of concentrations of the disclosed compounds are added to cells, followed by a single fixed concentration of agonist. If the compound acts as a potentiatior, an EC50 value for potentiation and a maximum extent of potentiation by the compound at this concentration of agonist is determined by non-linear curve fitting. If the compound acts as an antagonist, an IC50 value is determined by non-linear curve fitting. In the second mode, several fixed concentrations of the disclosed compounds are added to various wells on a plate, followed by a range in concentrations of agonist for each concentration of disclosed compound. The EC50 values for the agonist at each concentration of compound are determined by non-linear curve fitting. A decrease in the EC50 value of the agonist with increasing concentrations of the sample compound (a leftward shift of the agonist concentration-response curve) is an indication of the degree of mGluR4 potentiation at a given concentration of the sample compound. A decrease in the maximal response of the agonist with increasing concentrations of the sample compounds, with or without a rightward shift in agonist potency, is an indication of the degree of antagonism at mGluR4. The second mode also indicates whether the sample compounds also affect the maximum response to mGluR4 to agonists.

Data set [1] is described as follows: Brain-plasma Kp (CNS penetration). In kind it is in vivo. The following applies: rat, brain and plasma; species not given.

T1 sequence (Q14833 33-912): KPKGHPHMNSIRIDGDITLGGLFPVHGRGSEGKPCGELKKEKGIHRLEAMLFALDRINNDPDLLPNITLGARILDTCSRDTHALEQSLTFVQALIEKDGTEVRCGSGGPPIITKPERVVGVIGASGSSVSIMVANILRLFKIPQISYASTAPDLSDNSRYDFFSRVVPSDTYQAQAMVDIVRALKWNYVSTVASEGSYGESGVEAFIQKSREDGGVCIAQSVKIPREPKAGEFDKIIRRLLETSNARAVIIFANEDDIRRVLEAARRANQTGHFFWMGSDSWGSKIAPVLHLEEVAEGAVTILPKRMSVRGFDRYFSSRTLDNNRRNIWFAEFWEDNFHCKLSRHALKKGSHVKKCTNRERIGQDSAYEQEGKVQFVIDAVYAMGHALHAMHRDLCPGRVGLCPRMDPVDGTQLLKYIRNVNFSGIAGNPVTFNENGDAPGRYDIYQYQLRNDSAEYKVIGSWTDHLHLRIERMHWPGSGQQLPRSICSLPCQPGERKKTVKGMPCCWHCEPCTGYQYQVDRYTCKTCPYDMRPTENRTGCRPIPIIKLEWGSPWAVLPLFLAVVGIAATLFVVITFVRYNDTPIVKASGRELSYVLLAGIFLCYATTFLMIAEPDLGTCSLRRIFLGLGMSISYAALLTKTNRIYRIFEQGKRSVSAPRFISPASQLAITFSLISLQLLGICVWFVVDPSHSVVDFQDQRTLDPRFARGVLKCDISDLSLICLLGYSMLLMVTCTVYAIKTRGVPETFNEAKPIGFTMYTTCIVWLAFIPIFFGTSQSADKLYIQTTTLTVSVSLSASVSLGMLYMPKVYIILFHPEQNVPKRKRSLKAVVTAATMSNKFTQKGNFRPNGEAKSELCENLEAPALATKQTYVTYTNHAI

On to `Cn1nc(OCC2CCCOC2)c2ccc(NC(=O)c3ccc(F)cn3)cc21` (stereo not shown), for which, at human mGlu4 (second chart, read-out: hmGluR4 PAM EC50), the pEC50 was 7.00. This compound also had a Kp in data set [1] of 3.29.
With `CC(C)Oc1nn(C)c2cc(Nc3n[nH]c4cccnc34)ccc12` [Compound 1], the pEC50 at human mGlu4 (read-out: mGlu4 PAM EC50) was 6.38.
The same measure, in the same setting: to `Cc1cc(COc2nn(C)c3cc(Nc4n[nH]c5cccnc45)ccc23)on1` [Compound 2] belongs 6.98; to `CC(C)COc1nn(C)c2cc(Nc3n[nH]c4cccnc34)ccc12` [Compound 3], 6.64; to `Cn1nc(OCc2cccnc2)c2ccc(Nc3n[nH]c4cccnc34)cc21` [Compound 6], 7.08.
Same read-out and setting: to `Cc1ccnc(C(=O)Nc2ccc3c(OCC4CCOC4)nn(C)c3c2)c1` (stereo not shown) [Compound 98] belongs 6.00.

Values taken from patent US12291521B2, “Indazole compounds as mGluR4 allosteric potentiators, compositions, and methods of treating neurological dysfunction” (Vanderbilt University, priority 2017, dated 2025).
